Patent US7396837B2, “Antitumoral analogs of lamellarins” (Pharma Mar, S.A.U., priority 2002, dated 2008)
Where two headings read alike, the source gives them in different places.

Assays:
Type in all cases: cell-based
A-549 = assay: SRB colorimetric cell growth inhibition assay, A-549; settings: for GI50: GI=growth inhibition, read-out: GI50 A-549; for CC50: cell killing (cytotoxic effect), read-out: LC50 A-549; for IC (TGI): read-out: TGI A-549
From the text: (§1) The finality of these assays is to interrupt the growth of an “in vitro” tumor cell culture by means a continued exhibition of the cells to the sample to be testing.
(§2) A colorimetric type of assay, using sulforhodamine B (SRB) reaction has been adapted for a quantitative measurement of cell growth and viability (following the technique described by P. A. Skehan, et al., J. Natl. Cancer Inst. 1990, 82, 1107-1112).
(§3) This form of assay employs 96 well cell culture microplates of 9 mm diameter (T. Mosmann et al., J. of Immunological Methods 1983, 65, 55-63; G. T. Faircloth et al., J. of Tissue and Culture Methods 1988, 11, 201-205).
(§4) Most of the cell lines are obtained from American Type Culture Collection (ATCC) derived from different human cancer types.
(§5) The values for mean +/− SD of data from triplicate wells are calculated. Some parameters for cellular responses can be calculated: GI=growth inhibition, TGI=total growth inhibition (cytostatic effect) and LC=cell killing (cytotoxic effect).

SK-MEL-28 = assay: SRB colorimetric cell growth inhibition assay, SK-MEL-28; settings: for GI50: GI=growth inhibition, read-out: GI50 MEL-28; for CC50: cell killing (cytotoxic effect), read-out: LC50 MEL-28; for IC (TGI) / TGI MEL-28: total growth inhibition (cytostatic effect); for IC (TGI): read-out: TGI MEL-28
From the text: as §1, §2, §3, §4, §5

HT-29 = assay: SRB colorimetric cell growth inhibition assay, HT-29; settings: for GI50: GI=growth inhibition, read-out: GI50 HT-29; for CC50: cell killing (cytotoxic effect), read-out: LC50 HT-29; for IC (TGI) / TGI HT-29: total growth inhibition (cytostatic effect); for IC (TGI): read-out: TGI HT-29
From the text: as §1, §2, §3, §4, §5

LoVo = assay: SRB colorimetric cell growth inhibition assay, LoVo; settings: for GI50: GI=growth inhibition, read-out: GI50 LOVO; for CC50: cell killing (cytotoxic effect), read-out: LC50 LOVO; for IC (TGI) / TGI LOVO: total growth inhibition (cytostatic effect); for IC (TGI): read-out: TGI LOVO
From the text: as §1, §2, §3, §4, §5

LoVo-Dox = assay: SRB colorimetric cell growth inhibition assay, LoVo-Dox (MDR); settings: LOVO-DOX; for GI50: GI=growth inhibition, read-out: GI50 LOVO-DOX; for CC50: cell killing (cytotoxic effect), read-out: LC50 LOVO-DOX; for IC (TGI) / TGI LOVO-DOX: total growth inhibition (cytostatic effect); for IC (TGI): read-out: TGI LOVO-DOX
From the text: as §1, §2, §3, §4, §5

DU-145 = assay: SRB colorimetric cell growth inhibition assay, DU-145; settings: for GI50: GI=growth inhibition, read-out: GI50 DU-145; for CC50: cell killing (cytotoxic effect), read-out: LC50 DU-145; for IC (TGI) / TGI DU-145: total growth inhibition (cytostatic effect); for IC (TGI): read-out: TGI DU-145
From the text: as §1, §2, §3, §4, §5

SK-BR-3 = assay: SRB colorimetric cell growth inhibition assay, SK-BR-3; settings: for GI50: GI=growth inhibition, read-out: GI50 SK-BR-3; for CC50: cell killing (cytotoxic effect), read-out: LC50 SK-BR-3; for IC (TGI) / TGI SK-BR-3: total growth inhibition (cytostatic effect); for IC (TGI): read-out: TGI SK-BR-3
From the text: as §1, §2, §3, §4, §5

IGROV = assay: SRB colorimetric cell growth inhibition assay, IGROV; settings: IGROV; for GI50: GI=growth inhibition, read-out: GI50 IGROV; for CC50: cell killing (cytotoxic effect), read-out: LC50 IGROV; for IC (TGI) / TGI IGROV: total growth inhibition (cytostatic effect); for IC (TGI): read-out: TGI IGROV
From the text: as §1, §2, §3, §4, §5

IGROV-ET = assay: SRB colorimetric cell growth inhibition assay, IGROV-ET (ET-743 resistant); settings: IGROV-ET; for GI50: GI=growth inhibition, read-out: GI50 IGROV-ET; for CC50: cell killing (cytotoxic effect), read-out: LC50 IGROV-ET; for IC (TGI) / TGI IGROV-ET: total growth inhibition (cytostatic effect); for IC (TGI): read-out: TGI IGROV-ET
From the text: as §1, §2, §3, §4, §5

HeLa = assay: SRB colorimetric cell growth inhibition assay, HeLa; settings: Homo sapiens, HeLa; for GI50: GI=growth inhibition, read-out: GI50 HELA; for CC50: read-out: LC50 HELA; for IC (TGI): read-out: TGI HELA
From the text: as §1, §2, §3, §4, §5

HeLa-APL = assay: SRB colorimetric cell growth inhibition assay, HeLa-APL (aplidine resistant); settings: Homo sapiens; for GI50: read-out: GI50 HELA-APL; for CC50: read-out: LC50 HELA-APL; for IC (TGI): read-out: TGI HELA-APL
From the text: as §1, §2, §3, §4, §5

PANC-1 = assay: SRB colorimetric cell growth inhibition assay, PANC-1; settings: for GI50: GI=growth inhibition, read-out: GI50 PANC-1; for CC50: cell killing (cytotoxic effect), read-out: LC50 PANC-1; for IC (TGI) / TGI PANC-1: total growth inhibition (cytostatic effect); for IC (TGI): read-out: TGI PANC-1
From the text: as §1, §2, §3, §4, §5

[1] = Homo sapiens, A549, A-549, total growth inhibition (cytostatic effect)
[2] = Homo sapiens, SK-MEL-28, MEL-28
[3] = cell killing (cytotoxic effect)
[4] = total growth inhibition (cytostatic effect)
[5] = HELA-APL, cell killing (cytotoxic effect)
[6] = HELA-APL, total growth inhibition (cytostatic effect)

## COc1cc(-c2c3c4cc(OC)c(OC(=O)CCC5CCCCC5)cc4oc(=O)c3n3ccc4cc(OC(=O)CCC5CCCCC5)c(OC)cc4c23)ccc1OC(=O)CCC1CCCCC1 [Compound 12]
A-549; Homo sapiens, A549, A-549
  GI50: 1.2 µM
  CC50: 10.9 µM
A-549; [1]
  IC (TGI): 6.64 µM
SK-MEL-28; [2]
  GI50: 1.77 µM
  CC50: 10.9 µM
  IC (TGI): 5.98 µM
HT-29; Homo sapiens, HT-29, HT-29
  GI50: 0.0811 µM
  CC50: 10.9 µM
  IC (TGI): 0.841 µM
LoVo; Homo sapiens, LoVo
  GI50: 1.83 µM
  CC50: 10.9 µM
  IC (TGI): 7.41 µM
LoVo-Dox; Homo sapiens
  GI50: 10.9 µM
  CC50: 10.9 µM
  IC (TGI): 10.9 µM
DU-145; Homo sapiens, DU-145, DU-145
  GI50: 0.249 µM
  CC50: 7.07 µM
  IC (TGI): 1.43 µM
SK-BR-3; Homo sapiens, SK-BR-3, SK-BR-3
  GI50: 0.698 µM
  CC50: 10.9 µM
  IC (TGI): 3.45 µM
IGROV; Homo sapiens
  GI50: 1.42 µM
  CC50: 8.01 µM
  IC (TGI): 3.38 µM
IGROV-ET; Homo sapiens
  GI50: 10.9 µM
  CC50: 10.9 µM
  IC (TGI): 10.9 µM
HeLa
  GI50: 1.66 µM
HeLa; [3]
  CC50: 10.9 µM
HeLa; [4]
  IC (TGI): 7.5 µM
HeLa-APL; HELA-APL, GI=growth inhibition
  GI50: 3.66 µM
HeLa-APL; [5]
  CC50: 10.9 µM
HeLa-APL; [6]
  IC (TGI): 10.9 µM
PANC-1; Homo sapiens, PANC-1, PANC-1
  GI50: 1.62 µM
  CC50: 10.9 µM
  IC (TGI): 8.94 µM

## COc1cc2ccn3c(c(-c4ccc(OC(=O)[C@@H](N)Cc5ccccc5)c(OC)c4)c4c5cc(OC)c(OC(=O)[C@@H](N)Cc6ccccc6)cc5oc(=O)c43)c2cc1OC [Compound 13]
A-549; A-549
  GI50: 0.906 µM
  CC50: 12.4 µM
A-549; [1]
  IC (TGI): 12.4 µM
SK-MEL-28; MEL-28
  GI50: 3.11 µM
  CC50: 12.4 µM
  TGI MEL-28: 1.09E−05 Molar
HT-29; HT-29
  GI50: 3.22 µM
  CC50: 12.4 µM
  TGI HT-29: 6.39E−06 Molar
LoVo; LOVO
  GI50: 0.754 µM
  CC50: 9.02 µM
  TGI LOVO: 2.35E−06 Molar
LoVo-Dox
  GI50: 0.675 µM
  CC50: 12.4 µM
  TGI LOVO-DOX: 3.42E−06 Molar
DU-145; DU-145
  CC50: 12.4 µM
  TGI DU-145: 3.64E−06 Molar
DU-145; Homo sapiens, DU-145, DU-145
  GI50: 0.832 µM
SK-BR-3; SK-BR-3
  GI50: 0.0454 µM
  CC50: 10.2 µM
  TGI SK-BR-3: 1.13E−07 Molar
IGROV; Homo sapiens
  GI50: 1.29 µM
IGROV
  CC50: 12.4 µM
  TGI IGROV: 4.79E−06 Molar
IGROV-ET; Homo sapiens
  GI50: 1.96 µM
IGROV-ET
  CC50: 12.4 µM
  TGI IGROV-ET: 7.86E−06 Molar
HeLa
  CC50: 12.4 µM
  IC (TGI): 9.63 µM
  GI50: 1.83 µM
HeLa-APL
  GI50: 2.6 µM
  CC50: 12.4 µM
  IC (TGI): 12.1 µM
PANC-1; PANC-1
  GI50: 2.43 µM
  CC50: 12.4 µM
  TGI PANC-1: 1.24E−05 Molar

## COc1cc2ccn3c(c(-c4ccc(OC(=O)[C@@H](N)C(C)C)c(OC)c4)c4c5cc(OC)c(OC(=O)[C@@H](N)C(C)C)cc5oc(=O)c43)c2cc1OC [Compound 14]
A-549; A-549
  GI50: 0.555 µM
A-549; A-549, total growth inhibition (cytostatic effect)
  TGI A-549: 1.40E−05 Molar
SK-MEL-28; MEL-28
  GI50: 1.42 µM
  CC50: 14 µM
  TGI MEL-28: 1.40E−05 Molar
HT-29; HT-29
  GI50: 2.47 µM
  TGI HT-29: 7.26E−06 Molar
LoVo; LOVO
  GI50: 0.597 µM
  TGI LOVO: 2.47E−06 Molar
LoVo-Dox
  GI50: 0.497 µM
  TGI LOVO-DOX: 1.45E−06 Molar
DU-145; DU-145
  GI50: 0.517 µM
  CC50: 14 µM
  TGI DU-145: 2.19E−06 Molar
SK-BR-3; SK-BR-3
  GI50: 0.0424 µM
  CC50: 14 µM
  TGI SK-BR-3: 9.88E−08 Molar
IGROV
  GI50: 0.49 µM
  CC50: 14 µM
  TGI IGROV: 2.44E−06 Molar
IGROV-ET
  GI50: 0.745 µM
  CC50: 14 µM
  TGI IGROV-ET: 4.97E−06 Molar
HeLa
  GI50: 1.83 µM
HeLa; [3]
  CC50: 12.4 µM
HeLa; [4]
  IC (TGI): 9.63 µM
HeLa-APL; HELA-APL, GI=growth inhibition
  GI50: 2.6 µM
HeLa-APL; [5]
  CC50: 12.4 µM
HeLa-APL; [6]
  IC (TGI): 12.1 µM
PANC-1; PANC-1
  GI50: 1.18 µM
  TGI PANC-1: 1.40E−05 Molar

## COc1cc2ccn3c(c(-c4ccc(OC(=O)[C@H](C)N)c(OC)c4)c4c5cc(OC)c(OC(=O)[C@H](C)N)cc5oc(=O)c43)c2cc1OC [Compound 20]
A-549; Homo sapiens, A549, A-549
  GI50: 0.589 µM
  CC50: 15.3 µM
A-549; [1]
  IC (TGI): 15.3 µM
SK-MEL-28; [2]
  GI50: 2.24 µM
  CC50: 15.3 µM
  IC (TGI): 15.3 µM
HT-29; Homo sapiens, HT-29, HT-29
  GI50: 3.58 µM
  CC50: 15.3 µM
  IC (TGI): 15.3 µM
LoVo; Homo sapiens, LoVo
  GI50: 0.436 µM
  CC50: 15.3 µM
  IC (TGI): 8.83 µM
LoVo-Dox; Homo sapiens
  GI50: 0.525 µM
  CC50: 15.3 µM
  IC (TGI): 2.06 µM
DU-145; Homo sapiens, DU-145, DU-145
  GI50: 0.5 µM
  CC50: 15.3 µM
  IC (TGI): 2.36 µM
SK-BR-3; Homo sapiens, SK-BR-3, SK-BR-3
  GI50: 0.0548 µM
  CC50: 15.3 µM
  IC (TGI): 0.238 µM
IGROV; Homo sapiens
  GI50: 0.516 µM
  CC50: 15.3 µM
  IC (TGI): 7.46 µM
IGROV-ET; Homo sapiens
  GI50: 0.593 µM
  CC50: 15.3 µM
  IC (TGI): 15.3 µM
HeLa
  GI50: 1.17 µM
HeLa; [3]
  CC50: 15.3 µM
HeLa; [4]
  IC (TGI): 15.3 µM
HeLa-APL; HELA-APL, GI=growth inhibition
  GI50: 2.09 µM
HeLa-APL; [5]
  CC50: 15.3 µM
HeLa-APL; [6]
  IC (TGI): 15.3 µM
PANC-1; Homo sapiens, PANC-1, PANC-1
  GI50: 1.24 µM
  CC50: 15.3 µM
  IC (TGI): 15.3 µM
